Reference: patent publication US20090012103A1, “SUBSTITUTED HETEROCYCLIC COMPOUNDS” (priority 2007, published 2009)
Where two headings read alike, the source gives them in different places.

Molecular target: wild-type human cardiac sodium channel, hNav1.5 (Homo sapiens, UniProt Q14524)
Experiment: Late INa screening assay (late sodium current, PatchXpress whole cell patch clamp)
Format: cell-based
Details: for inhibition at 10 µM: read-out: Late INa % blk
Method: The late sodium current (Late INa) and peak sodium current (Peak INa) assays are performed on an automated electrophysiology platform, PatchXpress 7000A (MDS Analytical Technologies, Sunnyvale, Calif.), which uses the whole cell patch clamp technique to measure currents through the cell membrane of up to 16 cells at a time. The assay uses an HEK293 (human embryonic kidney) cell line heterologously expressing the wild-type human cardiac sodium channel, hNav1.5, purchased from Millipore (Billerica, Mass.). No beta subunits were coexpressed with the Na channel alpha subunit. […] Experiments are carried out at 24-27° C.
For both the Late INa and Peak INa assays, series resistance compensation is set to 50% and whole-cell compensation is performed automatically. […] Currents through open sodium channels are automatically recorded and stored in the DataXpress2 database (MDS Analytical Technologies, Sunnyvale, Calif.). Analysis is performed using DataXpress2 analysis software and data are compiled in Excel.
Compound stocks are routinely made in glass vials to 10 mM in dimethyl sulfoxide (DMSO). In some cases, when compounds are not soluble in DMSO, they are made in 100% ethanol. Stocks are sonicated as necessary. The extracellular solution for screening Late INa is composed of: 140 mM NaCl, 4 mM KCl, 1.8 mM CaCl2, 0.75 mM MgCl2, and 5 mM HEPES with pH adjusted to 7.4 using NaOH. The extracellular solution for screening Peak INa is composed of: 20 mM NaCl, 120 mM N-methyl-D glucamine, 4 mM KCl, 1.8 mM CaCl2, 0.75 mM MgCl2, and 5 mM HEPES with pH adjusted to 7.4 using HCl. The intracellular solution used to perfuse the inside of the cells for both the Late INa and Peak INa assays contains: 120 mM CsF, 20 mM CsCl, 5 mM EGTA, 5 mM HEPES and pH adjusted to 7.4 with CsOH. Compounds are diluted in extracellular solution to 10 μM in glass vials and then transferred to glass well plates before robotic addition to the cells. The 0 Na extracellular solution used at the end of each experiment for the Late INa and Peak INa assays to measure baseline current contains: 140 mM N-methyl-D-glucamine; 4 mM KCl; 1.8 mM CaCl2; 0.75 mM MgCl2; 5 mM HEPES and pH was adjusted to 7.4 with HCl.
For the Late INa assay, sodium channels are activated every 10 seconds (0.1 Hz) by depolarizing the cell membrane to −20 mV for 250 milliseconds (ms) from a holding potential of −120 mV.
All compounds are tested to determine their activity in blocking the late sodium current. Late INa current is generated by adding 10 μM Tefluthrin (pyrethroid) to the extracellular solution while recording Na currents. […] For some experiments, 50 nM ATX II (sea anemone toxin), another late INa activator, was used to generate the late component. […] Baseline current in the absence of Na^+ ions is measured at the end of each experiment (after two additions of 0 Na solution-see above) and is used to calculate the percent block by compound.

wild-type human cardiac sodium channel, hNav1.5, sequence (Q14524 whole entry): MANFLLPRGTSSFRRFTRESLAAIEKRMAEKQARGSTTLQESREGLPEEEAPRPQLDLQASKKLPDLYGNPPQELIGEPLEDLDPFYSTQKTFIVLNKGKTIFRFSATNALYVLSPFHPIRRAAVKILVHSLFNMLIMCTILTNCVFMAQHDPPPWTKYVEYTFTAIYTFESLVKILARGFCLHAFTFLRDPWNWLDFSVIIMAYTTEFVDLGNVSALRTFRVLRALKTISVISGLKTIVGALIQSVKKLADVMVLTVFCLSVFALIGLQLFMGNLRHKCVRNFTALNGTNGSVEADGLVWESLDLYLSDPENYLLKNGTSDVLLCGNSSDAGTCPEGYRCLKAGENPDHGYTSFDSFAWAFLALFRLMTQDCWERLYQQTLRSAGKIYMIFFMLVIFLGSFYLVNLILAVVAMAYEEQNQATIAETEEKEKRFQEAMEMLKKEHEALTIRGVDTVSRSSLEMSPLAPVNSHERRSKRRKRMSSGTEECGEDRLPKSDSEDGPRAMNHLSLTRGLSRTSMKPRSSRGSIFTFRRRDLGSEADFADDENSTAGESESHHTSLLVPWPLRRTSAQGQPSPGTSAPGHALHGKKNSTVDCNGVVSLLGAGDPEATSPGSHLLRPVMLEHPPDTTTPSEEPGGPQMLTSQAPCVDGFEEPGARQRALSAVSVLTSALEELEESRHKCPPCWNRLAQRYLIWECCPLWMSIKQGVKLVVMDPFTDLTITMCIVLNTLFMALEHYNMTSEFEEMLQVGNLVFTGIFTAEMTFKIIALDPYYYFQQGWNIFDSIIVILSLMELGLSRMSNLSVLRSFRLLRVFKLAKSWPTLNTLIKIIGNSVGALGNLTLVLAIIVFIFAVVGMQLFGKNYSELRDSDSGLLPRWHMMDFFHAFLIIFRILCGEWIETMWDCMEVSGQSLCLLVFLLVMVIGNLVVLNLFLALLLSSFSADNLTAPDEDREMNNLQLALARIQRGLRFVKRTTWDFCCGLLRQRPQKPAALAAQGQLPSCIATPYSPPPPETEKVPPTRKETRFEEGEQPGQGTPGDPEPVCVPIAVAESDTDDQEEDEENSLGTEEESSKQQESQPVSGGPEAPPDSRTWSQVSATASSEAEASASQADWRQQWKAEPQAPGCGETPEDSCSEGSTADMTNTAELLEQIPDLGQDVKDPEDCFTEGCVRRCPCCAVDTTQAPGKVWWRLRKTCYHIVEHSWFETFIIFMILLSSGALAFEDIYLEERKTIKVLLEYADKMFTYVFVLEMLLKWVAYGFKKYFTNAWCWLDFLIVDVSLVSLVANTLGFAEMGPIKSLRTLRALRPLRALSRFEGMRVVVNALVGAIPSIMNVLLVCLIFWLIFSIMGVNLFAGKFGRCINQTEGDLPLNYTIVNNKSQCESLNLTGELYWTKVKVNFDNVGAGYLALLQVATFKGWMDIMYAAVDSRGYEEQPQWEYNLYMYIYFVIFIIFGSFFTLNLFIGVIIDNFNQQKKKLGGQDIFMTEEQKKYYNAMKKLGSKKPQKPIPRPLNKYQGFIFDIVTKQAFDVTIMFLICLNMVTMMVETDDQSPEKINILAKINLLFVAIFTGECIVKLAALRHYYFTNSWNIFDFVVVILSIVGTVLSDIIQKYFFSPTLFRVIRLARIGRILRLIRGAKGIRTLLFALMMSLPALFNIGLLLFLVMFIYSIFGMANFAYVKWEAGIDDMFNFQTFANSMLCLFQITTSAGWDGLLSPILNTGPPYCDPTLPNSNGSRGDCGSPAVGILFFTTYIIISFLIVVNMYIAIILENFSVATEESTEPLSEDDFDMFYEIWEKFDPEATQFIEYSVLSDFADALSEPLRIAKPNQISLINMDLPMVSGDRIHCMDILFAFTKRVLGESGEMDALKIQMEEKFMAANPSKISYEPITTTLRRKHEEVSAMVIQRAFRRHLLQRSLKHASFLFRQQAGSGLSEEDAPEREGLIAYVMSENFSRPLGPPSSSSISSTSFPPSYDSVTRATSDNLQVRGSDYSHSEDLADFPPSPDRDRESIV

| Structure (SMILES) | inhibition at 10 µM (compound at 10 μM) [%] | further results |
| --- | --- | --- |
| COc1ccc(C2C(C(=O)OCc3ccccc3)=C(C)Nc3[nH]ncc32)c2ccccc12 (centres unmarked) [PT-333, benzyl 4-(4-methoxynaphthalen-1-yl)-6-methyl-4,7-dihydro-1H-pyrazolo[3,4-b]pyridine-5-carboxylate] | 13.1 | – |
| CC1=C(C(=O)OCc2ccccc2)C(c2ccccc2)c2ccccc2N1 (centres unmarked) [PT-321, benzyl 2-methyl-4-phenyl-1,4-dihydroquinoline-3-carboxylate] | 48.3 | – |
| CC1=C(C(=O)N2CCN(c3ccccc3)CC2)C(c2ccsc2)C2=C(CCCC2=O)N1 (centres unmarked) [PT-166, 2-methyl-3-(4-phenylpiperazine-1-carbonyl)-4-(thiophen-3-yl)-4,6,7,8-tetrahydroquinolin-5(1H)-one] | – | effect on late sodium current (result in words): potentiated late sodium current |
| CC1=C(C(=O)OCc2ccccc2)C(c2ccccc2B(O)O)n2nnnc2N1 (centres unmarked) [PT-255, 2-(6-(benzyloxycarbonyl)-5-methyl-4,7-dihydrotetrazolo[1,5-a]pyrimidin-7-yl)phenylboronic acid] | 20.6 | – |
| CC1=C(C(=O)OCc2ccccc2)C(c2ccc(-n3ccnc3)cc2)n2nnnc2N1 (centres unmarked) [PT-402, benzyl 7-(4-(1H-imidazol-1-yl)phenyl)-5-methyl-4,7-dihydrotetrazolo[1,5-a]pyrimidine-6-carboxylate] | 18.3 | – |
| CCOC(=O)c1c(C)nc2[nH]ncc2c1-c1ccccc1 [PT-474, ethyl 6-methyl-4-phenyl-1H-pyrazolo[3,4-b]pyridine-5-carboxylate] | 22 | – |
| CC1=C(C(=O)OCc2ccccc2)C(c2ccccc2-c2cnc(N)nc2)n2nnnc2N1 (centres unmarked) [PT-375, benzyl 7-(2-(2-aminopyrimidin-5-yl)phenyl)-5-methyl-4,7-dihydrotetrazolo[1,5-a]pyrimidine-6-carboxylate] | 50.7 | – |
| COCCOc1ccc(C2C(C(=O)OCc3ccccc3)=C(C)Nc3nnnn32)cc1 (centres unmarked) [PT-406, benzyl 7-(4-(2-methoxyethoxy)phenyl)-5-methyl-4,7-dihydrotetrazolo[1,5-a]pyrimidine-6-carboxylate] | 20.3 | – |
| COc1ccc(C2C(C(=O)OCc3ccccc3)=C(C)Nc3nnnn32)c([N+](=O)[O-])c1 (centres unmarked) [PT-419, benzyl 7-(4-methoxy-2-nitrophenyl)-5-methyl-4,7-dihydrotetrazolo[1,5-a]pyrimidine-6-carboxylate] | 44.2 | – |
| CC1=C(C(=O)OCc2ccccc2)C(c2ccccc2-c2ccc(C(C)O)cc2)n2nnnc2N1 (centres unmarked) [PT-404, benzyl 7-(4′-(1-hydroxyethyl)biphenyl-2-yl)-5-methyl-4,7-dihydrotetrazolo[1,5-a]pyrimidine-6-carboxylate] | 80.9 | – |
| CC1=C(C(=O)N2CCN(c3ccc(Cl)cc3)CC2)C(c2ccsc2)C2=C(CCCC2=O)N1 (centres unmarked) [PT-167, 3-(4-(4-chlorophenyl)piperazine-1-carbonyl)-2-methyl-4-(thiophen-3-yl)-4,6,7,8-tetrahydroquinolin-5(1H)-one] | -10 | – |
| CCOC(=O)C1=C(C)Nc2c(C#N)cnn2C1c1cccc2ccccc12 (centres unmarked) [PT-091, ethyl 3-cyano-5-methyl-7-(naphthalen-1-yl)-4,7-dihydropyrazolo[1,5-a]pyrimidine-6-carboxylate] | – | inhibition at 10 µM: 48.4% |
| CCOC(=O)C1=C(C)Nc2nnnn2C1c1c(Cl)cccc1Cl (centres unmarked) [PT-486, ethyl 7-(2,6-dichlorophenyl)-5-methyl-4,7-dihydrotetrazolo[1,5-a]pyrimidine-6-carboxylate] | 30.8 | – |
| c1ccc2c(c1)CCC1=C2C(c2cccc3ccccc23)n2nnnc2N1 (centres unmarked) [PT-198, 12-(naphthalen-1-yl)-5,6,7,12-tetrahydrobenzo[f]tetrazolo[5,1-b]quinazoline] | – | inhibition at 10 µM: 50.9% |
| O=C1OCC2=C1C(c1cccc3ccccc13)c1c(-c3ccco3)n[nH]c1N2 (centres unmarked) [PT-080, 3-(furan-2-yl)-4-(naphthalen-1-yl)-7,8-dihydro-1H-furo[3,4-e]pyrazolo[3,4-b]pyridin-5(4H)-one] | – | inhibition at 10 µM: 31.9% |
| CCOC(=O)C1=C(C)OC(N)=C(C#N)C1c1ccco1 (centres unmarked) [PT-092, ethyl 6-amino-5-cyano-4-(furan-2-yl)-2-methyl-4H-pyran-3-carboxylate] | -0.2 | – |

| Structure (SMILES) | inhibition at 10 µM (compound at 10 μM) [%] | further results |
| --- | --- | --- |
| CCOC(=O)C1=C(C)Nc2nnnn2C1c1c(C)cccc1C (centres unmarked) [PT-487, ethyl 7-(2,6-dimethylphenyl)-5-methyl-4,7-dihydrotetrazolo[1,5-a]pyrimidine-6-carboxylate] | 20.9 | – |
| CCOC(=O)C1=C(C)Nc2[nH]ncc2C1c1ccccc1-c1cccc(C(C)=O)c1 (centres unmarked) [PT-451, ethyl 4-(3′-acetylbiphenyl-2-yl)-6-methyl-4,7-dihydro-1H-pyrazolo[3,4-b]pyridine-5-carboxylate] | 18.4 | – |
| CCOC(=O)C1=C(C)NC(C)=C(C(=O)OCC)C1c1ccc(-c2ccc(Cl)cc2)o1 [PT-118, diethyl 4-(5-(4-chlorophenyl)furan-2-yl)-2,6-dimethyl-1,4-dihydropyridine-3,5-dicarboxylate] | -3.8 | – |
| CCOC(=O)C1=C(C)Nc2[nH]ncc2C1c1cccs1 (centres unmarked) [PT-473, ethyl 6-methyl-4-(thiophen-2-yl)-4,7-dihydro-1H-pyrazolo[3,4-b]pyridine-5-carboxylate] | 9.4 | – |
| CC1=C(C(=O)OCCOc2ccc(C(=O)O)cc2)C(c2cccc3ccccc23)n2nnnc2N1 (centres unmarked) [PT-290, 4-(2-(5-methyl-7-(naphthalen-1-yl)-4,7-dihydrotetrazolo[1,5-a]pyrimidine-6-carbonyloxy)ethoxy)benzoic acid] | 14.4 | – |
| CCOC(=O)C1=C(C)NC(C)=C(C(=O)OCC)C1c1ccc(OC)cc1C#N [PT-431, diethyl 4-(2-cyano-4-methoxyphenyl)-2,6-dimethyl-1,4-dihydropyridine-3,5-dicarboxylate] | 56.1 | – |
| CCOC(=O)C1=C(C(C)C)Nc2nnnn2C1c1cccc2ccccc12 (centres unmarked) [PT-013, ethyl 5-isopropyl-7-(naphthalen-1-yl)-4,7-dihydrotetrazolo[1,5-a]pyrimidine-6-carboxylate] | – | inhibition at 10 µM: 45.4% |
| CCOC(=O)C1=C(C)NC2=C(C(=O)CCC2)C1c1ccc2cc(OC)ccc2c1 (centres unmarked) [PT-137, ethyl 4-(6-methoxynaphthalen-2-yl)-2-methyl-5-oxo-1,4,5,6,7,8-hexahydroquinoline-3-carboxylate] | 25.3 | – |
| CCOC(=O)C1=C(C)NC(C)=C(C(=O)OCC)C1c1ccc(OC)cc1OC [PT-429, diethyl 4-(2,4-dimethoxyphenyl)-2,6-dimethyl-1,4-dihydropyridine-3,5-dicarboxylate] | 14.9 | – |
| COC(=O)C1=C(C)Nc2nnnn2C1c1sc2ccccc2c1Br (centres unmarked) [PT-520, methyl 7-(3-bromobenzo[b]thiophen-2-yl)-5-methyl-4,7-dihydrotetrazolo[1,5-a]pyrimidine-6-carboxylate] | 78.4 | – |
| CSc1ccc(C2C(C(=O)OCc3ccccc3)=C(C)Nc3nnnn32)cc1 (centres unmarked) [PT-356, benzyl 5-methyl-7-(4-(methylthio)phenyl)-4,7-dihydrotetrazolo[1,5-a]pyrimidine-6-carboxylate] | 16.4 | – |
| CCOC(=O)C1=C(C)NC(C)=C(C(=O)OCC)C1c1ccc(CC)o1 [PT-121, diethyl 4-(5-ethylfuran-2-yl)-2,6-dimethyl-1,4-dihydropyridine-3,5-dicarboxylate] | 54.8 | – |
| CCOC(=O)C1=C(C)NC(C)=C(C(=O)OCC)C1c1ccoc1 [PT-120, diethyl 4-(furan-3-yl)-2,6-dimethyl-1,4-dihydropyridine-3,5-dicarboxylate] | 25.7 | – |
| CC1=C(C(=O)OCc2ccccc2)[C@@H](c2ccccc2-c2cccc(C#N)c2)n2nnnc2N1 [PT-239, (R)-benzyl 7-(3′-cyanobiphenyl-2-yl)-5-methyl-4,7-dihydrotetrazolo[1,5-a]pyrimidine-6-carboxylate] | 94.8 | – |
| CCOC(=O)C1=C(C)Nc2nnnn2C1c1ccccc1-c1cccnc1 (centres unmarked) [PT-459, ethyl 5-methyl-7-(2-(pyridin-3-yl)phenyl)-4,7-dihydrotetrazolo[1,5-a]pyrimidine-6-carboxylate] | 10.3 | – |
| CC1=C(C(=O)OCc2ccccc2)C(c2occc2Br)n2nnnc2N1 (centres unmarked) [PT-400, benzyl 7-(3-bromofuran-2-yl)-5-methyl-4,7-dihydrotetrazolo[1,5-a]pyrimidine-6-carboxylate] | 53.2 | – |
